Measurements reported in PubChem BioAssay (NCI).
Where “and” joins values, the source holds several entries; their conditions need not be identical. Identical values can stand only once.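 Method: 48-hour compound exposure of cells in 96-well plates, five concentrations, linear interpolation of endpoints. At the GI50, growth is halved. TGI: concentration producing complete growth inhibition.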

Key:
Experiment in all cases: inhibition of tumour cell growth, NCI panel, 48 h
NCI-H460 lung = test system: NCI-H460 lung
HCT-116 colon = test system: HCT-116 colon
SF-295 CNS = test system: SF-295 CNS
U251 CNS = test system: U251 CNS
OVCAR-5 ovarian = test system: OVCAR-5 ovarian
SF-539 CNS = test system: SF-539 CNS
SW-620 colon = test system: SW-620 colon
HL-60(TB) leukemia = test system: HL-60(TB) leukemia
TK-10 renal = test system: TK-10 renal
HCC-2998 colon = test system: HCC-2998 colon

COc1cc2c(cc1OCCCCNC(=O)c1cc3ccccc3[nH]1)N=CC1CCCN1C2=O (centres undefined)
GI50 (NCI-H460 lung): 11.9 µM
TGI (NCI-H460 lung): 65.1 µM
GI50 (HCT-116 colon): 35.9 µM
TGI (HCT-116 colon): > 100 µM
GI50 (SF-295 CNS): 12.7 µM
TGI (SF-295 CNS): 41.6 µM
GI50 (U251 CNS): 10.5 µM
TGI (U251 CNS): > 100 µM
GI50 (OVCAR-5 ovarian): 22.9 µM
TGI (OVCAR-5 ovarian): > 100 µM
GI50 (SF-539 CNS): 8.57 µM
TGI (SF-539 CNS): 41.7 µM
GI50 (SW-620 colon): 9.84 µM
TGI (SW-620 colon): 67.6 µM
GI50 (HL-60(TB) leukemia): 7.97 µM
TGI (HL-60(TB) leukemia): > 100 µM
GI50 (TK-10 renal): 14.7 µM
TGI (TK-10 renal): 33.6 µM
GI50 (HCC-2998 colon): 16.6 µM
TGI (HCC-2998 colon): 45.1 µM

Nc1nc(N)c2cc(CNc3ccc(Cl)c(Cl)c3)ccc2n1
GI50 (NCI-H460 lung): 0.0609 µM
TGI (NCI-H460 lung): 1.32 µM
GI50 (HCT-116 colon): 0.0839 µM
TGI (HCT-116 colon): 1.31 µM
GI50 (SF-295 CNS): 0.419 µM
TGI (SF-295 CNS): 1.69 µM
GI50 (U251 CNS): 0.433 µM
TGI (U251 CNS): 1.66 µM
GI50 (OVCAR-5 ovarian): 0.756 µM
TGI (OVCAR-5 ovarian): 2.05 µM
GI50 (SF-539 CNS): 0.825 µM
TGI (SF-539 CNS): 2.13 µM
GI50 (SW-620 colon): 0.133 µM
TGI (SW-620 colon): 1.5 µM
GI50 (HL-60(TB) leukemia): 0.357 µM
TGI (HL-60(TB) leukemia): 2 µM
GI50 (TK-10 renal): 1.42 µM
TGI (TK-10 renal): 2.73 µM
GI50 (HCC-2998 colon): 0.64 µM
TGI (HCC-2998 colon): 2 µM

N/C(=N\O)c1ncc(-c2ccc(C(F)(F)F)cc2)c(NC2CCCCCC2)n1
GI50 (NCI-H460 lung): 6.6 µM and 2.6 µM
TGI (NCI-H460 lung): 9.34 µM
GI50 (HCT-116 colon): 3.95 µM and 1.41 µM
TGI (HCT-116 colon): 11.9 µM
GI50 (SF-295 CNS): 2.55 µM
TGI (SF-295 CNS): 12.5 µM
GI50 (U251 CNS): 4.35 µM and 1.83 µM
TGI (U251 CNS): 7.51 µM
GI50 (OVCAR-5 ovarian): 4.51 µM
TGI (OVCAR-5 ovarian): 19.3 µM
GI50 (SF-539 CNS): 3.39 µM
TGI (SF-539 CNS): 12.3 µM
GI50 (SW-620 colon): 4.92 µM and 3.88 µM
TGI (SW-620 colon): 15.4 µM
GI50 (HL-60(TB) leukemia): 2.06 µM
TGI (HL-60(TB) leukemia): 5.52 µM
GI50 (TK-10 renal): 2.49 µM
TGI (TK-10 renal): 9.73 µM
GI50 (HCC-2998 colon): 3.92 µM
TGI (HCC-2998 colon): 14.3 µM

CCc1cccc(C(C)CC)c1N=C(NC(=O)c1ccccc1C(=O)NC(=Nc1c(CC)cccc1C(C)CC)SC)SC (centres undefined)
TGI (NCI-H460 lung): > 100 µM
TGI (HCT-116 colon): > 100 µM
TGI (SF-295 CNS): > 100 µM
TGI (U251 CNS): 79.5 µM
TGI (OVCAR-5 ovarian): > 100 µM
TGI (SF-539 CNS): 68.8 µM
TGI (SW-620 colon): > 100 µM
TGI (HL-60(TB) leukemia): 51.5 µM
TGI (TK-10 renal): 79 µM
TGI (HCC-2998 colon): > 100 µM

C=C1CC[C@@H]2C(C)(C)[C@@H](O)CC[C@@]2(C)[C@@H]1COc1ccc2ccc(=O)oc2c1
GI50 (NCI-H460 lung): 14.9 µM
TGI (NCI-H460 lung): 32.4 µM
GI50 (HCT-116 colon): 11.1 µM
TGI (HCT-116 colon): 28 µM
GI50 (SF-295 CNS): 10.5 µM
TGI (SF-295 CNS): 22.9 µM
GI50 (U251 CNS): 9.62 µM
TGI (U251 CNS): 24.8 µM
GI50 (OVCAR-5 ovarian): 18.7 µM
TGI (OVCAR-5 ovarian): 39.9 µM
GI50 (SF-539 CNS): 14.7 µM
TGI (SF-539 CNS): 28.5 µM
GI50 (SW-620 colon): 18.8 µM
TGI (SW-620 colon): 44 µM
TGI (HL-60(TB) leukemia): 45.6 µM
GI50 (TK-10 renal): 15.3 µM
TGI (TK-10 renal): 43.4 µM
GI50 (HCC-2998 colon): 15.2 µM
TGI (HCC-2998 colon): 31.1 µM

Cc1ccc(-n2c3c(c4c(CN5CCCCC5)c(O)ccc42)CCc2ccccc2C3=O)cc1
GI50 (NCI-H460 lung): > 100 µM
TGI (NCI-H460 lung): > 100 µM
GI50 (HCT-116 colon): 43.4 µM
TGI (HCT-116 colon): > 100 µM
GI50 (SF-295 CNS): 35.8 µM
TGI (SF-295 CNS): > 100 µM
GI50 (U251 CNS): 47.9 µM
TGI (U251 CNS): > 100 µM
GI50 (OVCAR-5 ovarian): > 100 µM
TGI (OVCAR-5 ovarian): > 100 µM
GI50 (SF-539 CNS): 50 µM
TGI (SF-539 CNS): > 100 µM
GI50 (SW-620 colon): > 100 µM
TGI (SW-620 colon): > 100 µM
GI50 (HL-60(TB) leukemia): 0.477 µM
TGI (HL-60(TB) leukemia): > 100 µM
GI50 (TK-10 renal): > 100 µM
TGI (TK-10 renal): > 100 µM
GI50 (HCC-2998 colon): > 100 µM
TGI (HCC-2998 colon): > 100 µM

Cn1cc(-c2csc(-c3c[nH]c4ncccc34)n2)c2cc(Br)cnc21
GI50 (NCI-H460 lung): 2.98 µM
TGI (NCI-H460 lung): > 100 µM
GI50 (HCT-116 colon): 2.91 µM
TGI (HCT-116 colon): > 100 µM
GI50 (SF-295 CNS): 3.01 µM
TGI (SF-295 CNS): 18.8 µM
GI50 (U251 CNS): 2.7 µM
TGI (U251 CNS): > 100 µM
GI50 (OVCAR-5 ovarian): > 100 µM
TGI (OVCAR-5 ovarian): > 100 µM
GI50 (SF-539 CNS): 27.7 µM
TGI (SF-539 CNS): > 100 µM
GI50 (SW-620 colon): 4.46 µM
TGI (SW-620 colon): > 100 µM
GI50 (HL-60(TB) leukemia): > 100 µM
TGI (HL-60(TB) leukemia): > 100 µM
GI50 (TK-10 renal): 3.77 µM
TGI (TK-10 renal): > 100 µM
GI50 (HCC-2998 colon): > 100 µM
TGI (HCC-2998 colon): > 100 µM

CC(C)=CC/C=C(/C)[C@H]1CC[C@]2(C)[C@@H]1CC[C@@H]1[C@@]3(C)CCC(=O)NC(C)(C)[C@@H]3CC[C@]12C
GI50 (NCI-H460 lung): 33.9 µM
TGI (NCI-H460 lung): > 100 µM
GI50 (HCT-116 colon): 15 µM
TGI (HCT-116 colon): 34.5 µM
GI50 (SF-295 CNS): 18.7 µM
TGI (SF-295 CNS): 36.6 µM
GI50 (U251 CNS): 17.2 µM
TGI (U251 CNS): 36.5 µM
GI50 (OVCAR-5 ovarian): 19.3 µM
TGI (OVCAR-5 ovarian): 39.5 µM
GI50 (SF-539 CNS): 16.5 µM
TGI (SF-539 CNS): 30.5 µM
GI50 (SW-620 colon): 20.2 µM
TGI (SW-620 colon): 43.9 µM
GI50 (HL-60(TB) leukemia): 18.2 µM
TGI (HL-60(TB) leukemia): 49.3 µM
GI50 (TK-10 renal): 47.5 µM
TGI (TK-10 renal): > 100 µM
GI50 (HCC-2998 colon): 20.2 µM
TGI (HCC-2998 colon): 35.8 µM

Cc1c2ccccc2c(C)c2c3c(ccc12)C(=O)C=CC3=O
TGI (NCI-H460 lung): > 100 µM
TGI (HCT-116 colon): 49.7 µM
TGI (SF-295 CNS): > 31.6 µM
TGI (U251 CNS): > 100 µM
TGI (OVCAR-5 ovarian): > 100 µM
TGI (SF-539 CNS): > 100 µM
TGI (SW-620 colon): 47 µM
TGI (HL-60(TB) leukemia): 5.3 µM
TGI (TK-10 renal): 36.7 µM
TGI (HCC-2998 colon): > 100 µM

COc1ccc2c(c1)C(=O)c1c-2n(CCCN=[N+]=[N-])c(=O)c2ccccc12
GI50 (NCI-H460 lung): 4.86 µM
TGI (NCI-H460 lung): > 100 µM
GI50 (HCT-116 colon): 26.7 µM
TGI (HCT-116 colon): > 100 µM
GI50 (SF-295 CNS): 18.5 µM
TGI (SF-295 CNS): > 100 µM
GI50 (U251 CNS): 27.5 µM
TGI (U251 CNS): > 100 µM
GI50 (OVCAR-5 ovarian): > 100 µM
TGI (OVCAR-5 ovarian): > 100 µM
GI50 (SF-539 CNS): 44.8 µM
TGI (SF-539 CNS): > 100 µM
GI50 (SW-620 colon): 25.5 µM
TGI (SW-620 colon): > 100 µM
GI50 (HL-60(TB) leukemia): 54.1 µM
TGI (HL-60(TB) leukemia): > 100 µM
GI50 (TK-10 renal): 60 µM
TGI (TK-10 renal): > 100 µM
GI50 (HCC-2998 colon): 61.9 µM
TGI (HCC-2998 colon): > 100 µM

Clc1ccc(-c2nc3c(-c4ccc(Cl)cc4)nc(-c4ccccc4)cn3c2-c2ccc(Cl)cc2)cc1
GI50 (NCI-H460 lung): > 50 µM
TGI (NCI-H460 lung): > 50 µM
GI50 (HCT-116 colon): > 50 µM
TGI (HCT-116 colon): > 50 µM
GI50 (SF-295 CNS): 12 µM
TGI (SF-295 CNS): > 50 µM
GI50 (U251 CNS): 45.2 µM
TGI (U251 CNS): > 50 µM
GI50 (OVCAR-5 ovarian): > 50 µM
TGI (OVCAR-5 ovarian): > 50 µM
GI50 (SF-539 CNS): 21 µM
TGI (SF-539 CNS): > 50 µM
GI50 (SW-620 colon): > 50 µM
TGI (SW-620 colon): > 50 µM
GI50 (HL-60(TB) leukemia): > 50 µM
TGI (HL-60(TB) leukemia): > 50 µM
GI50 (TK-10 renal): 34.3 µM
TGI (TK-10 renal): > 50 µM
GI50 (HCC-2998 colon): > 50 µM
TGI (HCC-2998 colon): > 50 µM
